Laboratory results: ChEMBL document CHEMBL1201862, “PubChem BioAssay data set” (2004)
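How tested: cells in 96-well plates exposed to compound for 48 hours at five concentrations. The concentration for 50% growth inhibition is given as GI50.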 Active and inactive are the calls of the source. Cut-off read from the data, not from the text of the source: active = GI50 up to about 1.1 µM and inactive = higher.

What was measured:
Assay in all cases: NCI tumour cell line growth inhibition, 48 h
ACHN = test system: ACHN
HCT-15 = test system: HCT-15
RXF 393 = test system: RXF 393
786-0 = test system: 786-0
HOP-62 = test system: HOP-62
HCT-116 = test system: HCT-116
A498 = test system: A498
UACC-257 = test system: UACC-257
CCRF-CEM = test system: CCRF-CEM
SF-268 = test system: SF-268
MOLT-4 = test system: MOLT-4
NCI-H226 = test system: NCI-H226
TK-10 = test system: TK-10
SF-295 = test system: SF-295
SN12C = test system: SN12C
OVCAR-4 = test system: OVCAR-4
SK-MEL-28 = test system: SK-MEL-28
UO-31 = test system: UO-31
HL-60 = test system: HL-60

Row | SMILES | GI50 (ACHN) | GI50 (HCT-15) [µM] | GI50 (RXF 393) | GI50 (786-0) | GI50 (HOP-62) | GI50 (HCT-116) | GI50 (A498) | GI50 (UACC-257) | GI50 (CCRF-CEM) | GI50 (SF-268) | GI50 (MOLT-4) | GI50 (NCI-H226) | GI50 (TK-10) | GI50 (SF-295) | GI50 (SN12C) | GI50 (OVCAR-4) | GI50 (SK-MEL-28) | GI50 (UO-31) | GI50 (HL-60)
1 | CN1C2CCC1CN(CCOC(c1ccc(F)cc1)c1ccc(F)cc1)C2 | 40.6 µM (inactive) | 32.9 | 16.5 µM (inactive) | 19.6 µM (inactive) | 21.4 µM (inactive) | 17.8 µM (inactive) | 24.8 µM (inactive) | 19.1 µM (inactive) | 36.7 µM (inactive) | 46.7 µM (inactive) | 23.6 µM (inactive) | 32.3 µM (inactive) | > 100 µM (inactive) | 19.1 µM (inactive) | 47.9 µM (inactive) | 43.8 µM (inactive) | 15.5 µM (inactive) | 33.2 µM (inactive) | 12.6 µM (inactive)
2 | CC1(C)CC(=O)C(CCC(=O)/C=C/c2ccccc2)C(=O)C1 | 98.9 µM (inactive) | > 100 | > 95.3 µM (inactive) | > 100 µM (inactive) | > 100 µM (inactive) | > 100 µM (inactive) | > 100 µM (inactive) | > 100 µM (inactive) | > 34.9 µM (inactive) | > 100 µM (inactive) | 34 µM (inactive) | > 100 µM (inactive) | > 100 µM (inactive) | > 100 µM (inactive) | > 100 µM (inactive) | > 100 µM (inactive) | > 100 µM (inactive) | > 61.4 µM (inactive) | 2.51 µM (inactive)
3 | COc1cc(=O)n2c3ccccc3n(C)c2c1C#N | 76.9 µM (inactive) | > 100 | > 100 µM (inactive) | > 100 µM (inactive) | > 100 µM (inactive) | 43.8 µM (inactive) | > 100 µM (inactive) | > 100 µM (inactive) | > 100 µM (inactive) | > 100 µM (inactive) | 45.3 µM (inactive) | > 100 µM (inactive) | > 100 µM (inactive) | 22.6 µM (inactive) | > 100 µM (inactive) | > 100 µM (inactive) | – | > 100 µM (inactive) | > 100 µM (inactive)
4 | CC(C)=CCC[C@@H](C)C1=C(O)C(=O)C(C)=C(Nc2ccccc2Br)C1=O | 15.6 µM (inactive) | 6.65 | 14.3 µM (inactive) | 13.3 µM (inactive) | 12.4 µM (inactive) | 18.1 µM (inactive) | 7.19 µM (inactive) | 14.9 µM (inactive) | 3.84 µM (inactive) | 7.89 µM (inactive) | 4.09 µM (inactive) | 14.7 µM (inactive) | 22.4 µM (inactive) | 3.85 µM (inactive) | 12.5 µM (inactive) | 6.52 µM (inactive) | 14.4 µM (inactive) | 11.3 µM (inactive) | 2.73 µM (inactive)
5 | CCN(CC)C(=O)CCCCCCCCC1CO1 (stereo not drawn) | > 100 µM (inactive) | > 100 | > 100 µM (inactive) | > 100 µM (inactive) | > 100 µM (inactive) | > 100 µM (inactive) | > 100 µM (inactive) | > 100 µM (inactive) | > 100 µM (inactive) | > 100 µM (inactive) | > 100 µM (inactive) | > 100 µM (inactive) | > 100 µM (inactive) | > 100 µM (inactive) | > 100 µM (inactive) | > 100 µM (inactive) | > 100 µM (inactive) | > 100 µM (inactive) | 21.1 µM (inactive)
6 | O=C(O)C1C2C=CC(O2)C1C(=O)Nc1ncccn1 (stereo not drawn) | > 100 µM (inactive) | > 100 | > 100 µM (inactive) | > 100 µM (inactive) | > 100 µM (inactive) | > 100 µM (inactive) | > 100 µM (inactive) | > 100 µM (inactive) | > 100 µM (inactive) | > 100 µM (inactive) | > 100 µM (inactive) | > 100 µM (inactive) | > 100 µM (inactive) | > 100 µM (inactive) | > 100 µM (inactive) | > 100 µM (inactive) | > 100 µM (inactive) | > 100 µM (inactive) | > 100 µM (inactive)
